Results from patent publication US20120115727A1, “CONTROL OF PHENOXYALKANOIC ACID HERBICIDE-RESISTANT WEEDS WITH 4-AMINO-3-CHLORO-6-(4-CHLORO-2-FLUORO-3-METHOXYPHENYL)PYRIDINE-2-CARBOXYLIC ACID AND ITS SALTS OR ESTERS” (DOW AGROSCIENCES LLC, priority 2010, published 2012).

What was measured:
Test in all cases: Postemergence herbicidal activity, greenhouse, visual injury
Format in all cases: in vivo, Papaver rhoeas
Conditions in all cases: 20-22 d after application
[1] = tested on: PAPRH-S1F00101 (phenoxyalkanoic acid herbicide-resistant corn poppy)
Procedure: (§1) Seeds of the phenoxyalkanoic acid herbicide-resistant and susceptible plant species were planted in Sun Gro MetroMix® 306 planting mixture, which typically has a pH of 6.0 to 6.8 and an organic matter content of about 30 percent, in plastic pots with a surface area of 103.2 square centimeters (cm^2). When required to ensure good germination and healthy plants, a fungicide treatment and/or other chemical or physical treatment was applied. The plants were grown for 7-36 days (d) in a greenhouse with an approximate 14-hour (h) photo-period which was maintained at about 18° C. during the day and 17° C. during the night. Nutrients and water were added on a regular basis and supplemental lighting was provided with overhead metal halide 1000-Watt lamps as necessary. The plants were employed for testing when they reached the second or third true leaf stage.
(§2) Treatments consisted of the acid or esters of 4-amino-3-chloro-6-(4-chloro-2-fluoro-3-methoxyphenyl)pyridine-2-carboxylic acid (Compound I) and 2,4-D, mecoprop and 2-(4-chloro-2-methyl-phenoxy)acetic acid (MCPA) alone. Weighed amounts of the herbicides were dissolved in a volume of 97:3 volume-per-volume (v/v) acetone/dimethylsulfoxide (DMSO) to obtain concentrated solutions. […] The concentrated solutions of the test compound were diluted with the addition of an aqueous mixture containing acetone, water, isopropyl alcohol, DMSO, Agri-Dex crop oil concentrate, and Triton® X-77 surfactant in a 64.7:26.0:6.7:2.0:0.7:0.01 v/v ratio. Test compounds were diluted to the appropriate application rate with a dilution solution which was prepared by mixing the appropriate volume of 97:3 v/v acetone/DMSO and the appropriate volume of an aqueous mixture containing acetone, water, isopropyl alcohol, DMSO, Agri-Dex crop oil concentrate, and Triton® X-77 surfactant in a 64.7:26.0:6.7:2.0:0.7:0.01 v/v ratio. Compound requirements are based upon a 12 mL application volume at a rate of 187 liters per hectare (L/ha). Spray solutions of 2,4-D, mecoprop and MCPA were prepared by diluting an aliquot of the concentrated herbicide with an aqueous mixture containing 1.25% v/v Agri-Dex. 2,4-D, mecoprop and MCPA were applied at 1×, 2× and 4× of the recommended application rate.
(§3) Formulated compounds were applied to the plant material with an overhead Mandel track sprayer equipped with 8002E nozzles calibrated to deliver 187 L/ha over an application area of 0.503 square meters (m^2) at a spray height of 18 inches (43 centimeters (cm)) above average plant canopy. Control plants were sprayed in the same manner with the solvent blank.
(§4) The treated plants and control plants were placed in a greenhouse as described above and watered by sub-irrigation to prevent wash-off of the test compounds. After 20-22 d, the condition of the test plants as compared with that of the control plants was determined visually and scored on a scale of 0 to 100 percent where 0 corresponds to no injury and 100 corresponds to complete kill.

[2] = tested on: PAPRH-S4F00101 (phenoxyalkanoic acid herbicide-resistant corn poppy)
Procedure: as §1, §2, §3, §4

[3] = tested on: PAPRH-Susceptible (susceptible corn poppy)
Procedure: as §1, §2, §3, §4

[4] = tested on: PAPRH-S2F01502 (phenoxyalkanoic acid herbicide-resistant corn poppy)
Procedure: as §1, §2, §3, §4

[5] = tested on: PAPRH-S4F00103 (phenoxyalkanoic acid herbicide-resistant corn poppy)
Procedure: as §1, §2, §3, §4

Compound | Activity (visual injury, 0 = no injury, 100 = complete kill) PAPRH-S1F00101 ([1]; 800 g ae/ha) [%] | Activity (visual injury, 0 = no injury, 100 = complete kill) PAPRH-S1F00101 ([1]; 1600 g ae/ha) [%] | Activity (visual injury, 0 = no injury, 100 = complete kill) PAPRH-S1F00101 ([1]; 3200 g ae/ha) [%] | Activity (visual injury, 0 = no injury, 100 = complete kill) PAPRH-S4F00101 ([2]; 800 g ae/ha) [%] | Activity (visual injury, 0 = no injury, 100 = complete kill) PAPRH-S4F00101 ([2]; 1600 g ae/ha) [%] | Activity (visual injury, 0 = no injury, 100 = complete kill) PAPRH-S4F00101 ([2]; 3200 g ae/ha) [%] | Activity (visual injury, 0 = no injury, 100 = complete kill) PAPRH-Susceptible ([3]; 800 g ae/ha) [%] | Activity (visual injury, 0 = no injury, 100 = complete kill) PAPRH-Susceptible ([3]; 1600 g ae/ha) [%] | Activity (visual injury, 0 = no injury, 100 = complete kill) PAPRH-Susceptible ([3]; 3200 g ae/ha) [%] | Activity (visual injury, 0 = no injury, 100 = complete kill) PAPRH-S2F01502 ([4]; 800 g ae/ha) [%] | Activity (visual injury, 0 = no injury, 100 = complete kill) PAPRH-S2F01502 ([4]; 1600 g ae/ha) [%] | Activity (visual injury, 0 = no injury, 100 = complete kill) PAPRH-S2F01502 ([4]; 3200 g ae/ha) [%] | Activity (visual injury, 0 = no injury, 100 = complete kill) PAPRH-S4F00103 ([5]; 800 g ae/ha) [%] | Activity (visual injury, 0 = no injury, 100 = complete kill) PAPRH-S4F00103 ([5]; 1600 g ae/ha) [%] | Activity (visual injury, 0 = no injury, 100 = complete kill) PAPRH-S4F00103 ([5]; 3200 g ae/ha) [%] | also measured
O=C(O)COc1ccc(Cl)cc1Cl [2,4-D, (2,4-dichlorophenoxy)acetic acid] | 21 | 16 | 50 | 22 | 42 | 33 | 85 | 94 | 99 | 15 | 53 | 51 | 21 | 19 | 59 | –
COc1c(Cl)ccc(-c2cc(N)c(Cl)c(C(=O)O)n2)c1F [Compound I, 4-amino-3-chloro-6-(4-chloro-2-fluoro-3-methoxyphenyl)pyridine-2-carboxylic acid] | – | – | – | – | – | – | – | – | – | – | – | – | – | – | – | Activity (visual injury, 0 = no injury, 100 = complete kill) PAPRH-S1F00101 ([1]; 7.5 g ae/ha): 90%; Activity (visual injury, 0 = no injury, 100 = complete kill) PAPRH-S1F00101 ([1]; 10 g ae/ha): 90%; Activity (visual injury, 0 = no injury, 100 = complete kill) PAPRH-S4F00101 ([2]; 7.5 g ae/ha): 88%; Activity (visual injury, 0 = no injury, 100 = complete kill) PAPRH-S4F00101 ([2]; 10 g ae/ha): 94%; Activity (visual injury, 0 = no injury, 100 = complete kill) PAPRH-Susceptible ([3]; 7.5 g ae/ha): 95%; Activity (visual injury, 0 = no injury, 100 = complete kill) PAPRH-Susceptible ([3]; 10 g ae/ha): 97%; Activity (visual injury, 0 = no injury, 100 = complete kill) PAPRH-S2F01502 ([4]; 7.5 g ae/ha): 93%; Activity (visual injury, 0 = no injury, 100 = complete kill) PAPRH-S2F01502 ([4]; 10 g ae/ha): 94%; Activity (visual injury, 0 = no injury, 100 = complete kill) PAPRH-S4F00103 ([5]; 7.5 g ae/ha): 78%; Activity (visual injury, 0 = no injury, 100 = complete kill) PAPRH-S4F00103 ([5]; 10 g ae/ha): 95%
Cc1cc(Cl)ccc1OCC(=O)O [MCPA, 2-(4-chloro-2-methyl-phenoxy)acetic acid] | 14 | 23 | 57 | 28 | 37 | 60 | 70 | 89 | 100 | 28 | 14 | 58 | 23 | 40 | 57 | –
